This experiment addresses HIV-1 protease (Human immunodeficiency virus type 1 group M subtype B, UniProt P04585). The experiment can be described thus: biochemical. Particulars: for inhibition at 0.123 µM: read-out: HIV-1 Protease % Inhib, dose 0.123 uM. In a few lines: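 Percent inhibition derived from fluorescent cleavage product separated by filtration after streptavidin-bead capture of intact biotin/FITC substrate. Reaction: enzyme (10 μl, 0.1 μM stock) with substrate (20 μl, 0.2 μM stock) and compound, 1 h at room temperature in dark, pH 5.5 acetate buffer with 1.0 M NaCl and 0.05% NP-40.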

Setting [1] is: read-out: HIV-1 Protease % Inhib, dose 0.370 uM.
[2] abbreviates: read-out: HIV-1 Protease % Inhib, dose 1.100 uM.
Setting [3] is: read-out: HIV-1 Protease % Inhib, dose 3.300 uM.
Setting [4] is: read-out: HIV-1 Protease % Inhib, dose 10.000 uM.
Where [5] appears, read: read-out: HIV-1 Protease % Inhib, dose 30.000 uM.
[6] abbreviates: dose 1.100 uM, read-out: HIV-1 Protease % Inhib.
[7] abbreviates: dose 3.300 uM, read-out: HIV-1 Protease % Inhib.
Setting [8] is: dose 10.000 uM, read-out: HIV-1 Protease % Inhib.
The mark [9] stands for this setting: dose 30.000 uM, read-out: HIV-1 Protease % Inhib.
[10] abbreviates: read-out: HIV-1 Protease % Inhib.

Read-outs that look alike come from different tables or passages of the source.

On to `O=c1oc2c(c(O)c1C(c1cccc(NS(=O)(=O)c3ccc(Cl)cc3Cl)c1)C1CC1)CCCCCC2` (stereo not shown) [Example 305, 2,4-Dichloro-N-[3-[cyclopropyl(5,6,7,8,9,10-hexahydro-4-hydroxy-2'-oxo-2H-cycloocta[b]pyran-3-yl)methyl]phenyl]-benzenesulfonamide], for which the inhibition at 0.123 µM was 60.4%. In addition, the inhibition at 0.37 µM under setting [1] came to 86.2%. Also, the inhibition at 1.1 µM under setting [2] worked out at 92.4%. Moreover, the inhibition at 3.3 µM under setting [3] turned out to be 95.2%. For the same compound, the inhibition at 10 µM under setting [4] is 99.8%. Under setting [5], the inhibition at 30 µM came out at 107%.

Regarding `O=c1oc2c(c(O)c1C(c1cccc(NS(=O)(=O)c3c(Cl)cc(Cl)cc3Cl)c1)C1CC1)CCCCCC2` (stereo not shown) [Example 306, 2,4,6-Trichloro-N-[3-[cyclopropyl(5,6,7,8,9,10-hexahydro-4-hydroxy-2-oxo-2H-cycloocta[b]pyran-3-yl)methyl]phenyl]-benzenesulfonamide], the inhibition at 1.1 µM under setting [6] worked out at 24.4%. The inhibition at 3.3 µM under setting [7] amounted to 53.2%. Moreover, the inhibition at 10 µM under setting [8] is 74.5%. Further, under setting [9], the inhibition at 30 µM came to 86.2%.

`CS(=O)(=O)Nc1cccc(C(c2c(O)c3c(oc2=O)CCCCCC3)C2CC2)c1` (stereo not shown) [Example 317, N-[3-[Cyclopropyl(5,6,7,8,9,10-hexahydro-4-hydroxy-2-oxo-2H-cycloocta[b]pyran-3-yl)methyl]phenyl]-methanesulfonamide]: the inhibition at 0.123 µM turned out to be 27.8%. Further, under setting [1], the inhibition at 0.37 µM turned out to be 46.7%. In addition, the inhibition at 1.1 µM under setting [2] was found to be 81.7%. Moreover, the inhibition at 3.3 µM under setting [3] was 101%. Moreover, under setting [4], the inhibition at 10 µM was determined as 102%. The inhibition at 30 µM under setting [5] worked out at 113%.

Turning to `CC(=O)Nc1nc(C)c(S(=O)(=O)Nc2cccc(C(c3c(O)c4c(oc3=O)CCCCCC4)C3CC3)c2)s1` (stereo not shown) [Example 322, N-[5-[[[3-[Cyclopropyl(5,6,7,8,9,10-hexahydro-4-hydroxy-2-oxo-2H-cycloocta[b]pyran-3-yl)methyl]phenyl]amino]sulfonyl]-4-methyl-2-thiazolyl]-acetamide], the inhibition at 1.1 µM under setting [6] was determined as 22.3%. Also, the inhibition at 3.3 µM under setting [7] is 61.1%. For the same compound, the inhibition at 10 µM under setting [8] worked out at 91.8%. Further, the inhibition at 30 µM under setting [9] was 106%.

`O=c1oc2c(c(O)c1C(c1cccc(NS(=O)(=O)c3cccs3)c1)C1CC1)CCCCCC2` (stereo not shown) [Example 323, N-[3-[Cyclopropyl(5,6,7,8,9,10-hexahydro-4-hydroxy-2-oxo-2H-cycloocta[b]pyran-3-yl)methyl]phenyl]-2-thiophenesulfonamide]: the inhibition at 0.123 µM came to 62.8%. Also, the inhibition at 0.37 µM under setting [1] was 91.8%. In addition, the inhibition at 1.1 µM under setting [2] was found to be 100%. For the same compound, the inhibition at 3.3 µM under setting [3] stood at 104%. Under setting [4], the inhibition at 10 µM turned out to be 118%. Besides, under setting [5], the inhibition at 30 µM turned out to be 112%.

In the case of `Cc1ccc(S(=O)(=O)Nc2cccc(C(c3c(O)c4c(oc3=O)CCCCCC4)C3CC3)c2)cc1` (stereo not shown) [Example 325, N-[3-[Cyclopropyl(5,6,7,8,9,10-hexahydro-4-hydroxy-2-oxo-2H-cycloocta[b]pyran-3-yl)methyl]phenyl]4-methyl-benzenesulfonamide], the inhibition at 0.123 µM was found to be 59.8%. Further, the inhibition at 0.37 µM under setting [1] worked out at 86.6%. Moreover, under setting [2], the inhibition at 1.1 µM was found to be 95.6%. For the same compound, the inhibition at 3.3 µM under setting [3] was determined as 105%. Under setting [4], the inhibition at 10 µM was found to be 115%. For the same compound, the inhibition at 30 µM under setting [5] worked out at 115%.

Turning to `CCCCS(=O)(=O)Nc1cccc(C(c2c(O)c3c(oc2=O)CCCCCC3)C2CC2)c1` (stereo not shown) [Example 326, N-[3-[Cyclopropyl(5,6,7,8,9,10-hexahydro-4-hydroxy-2-oxo-2H-cycloocta[b]pyran-3-yl)methyl]phenyl]-1-butanesulfonamide], the inhibition at 0.123 µM came to 51.6%. Besides, the inhibition at 0.37 µM under setting [1] worked out at 92.6%. The inhibition at 1.1 µM under setting [2] turned out to be 102%. Besides, the inhibition at 3.3 µM under setting [3] was 106%. Also, under setting [4], the inhibition at 10 µM came to 114%. Besides, the inhibition at 30 µM under setting [5] was determined as 121%.

For `CC(C)S(=O)(=O)Nc1cccc(C(c2c(O)c3c(oc2=O)CCCCCC3)C2CC2)c1` (stereo not shown) [Example 328, N-[3-[Cyclopropyl(5,6,7,8,9,10-hexahydro-4-hydroxy-2-oxo-2H-cycloocta[b]pyran-3-yl)methyl]phenyl]-2-propanesulfonamide], the inhibition at 0.123 µM is 11.9%. The inhibition at 0.37 µM under setting [1] worked out at 46%. Under setting [2], the inhibition at 1.1 µM stood at 86.6%. The inhibition at 3.3 µM under setting [3] amounted to 106%. For the same compound, the inhibition at 10 µM under setting [4] was 114%. Moreover, under setting [5], the inhibition at 30 µM is 111%.

Turning to `Cc1cccc(C)c1S(=O)(=O)Nc1cccc(C(c2c(O)c3c(oc2=O)CCCCCC3)C2CC2)c1` (stereo not shown) [Example 329, N-[3-[Cyclopropyl(5,6,7,8,9,10-hexahydro-4-hydroxy-2-oxo-2H-cycloocta[b]pyran-3-yl)methyl]phenyl]-2,6-dimethyl-benzenesulfonamide], under setting [10], the inhibition at 0.37 µM turned out to be 10.2%, the inhibition at 1.1 µM came to 42.2%, the inhibition at 3.3 µM turned out to be 75.3% and the inhibition at 10 µM amounted to 91.8%. The inhibition at 30 µM under setting [10] was 102%.

Consider `Cc1ccccc1S(=O)(=O)Nc1cccc(C(c2c(O)c3c(oc2=O)CCCCCC3)C2CC2)c1` (stereo not shown) [Example 330, N-[3-[Cyclopropyl(5,6,7,8,9,10-hexahydro-4-hydroxy-2-oxo-2H-cycloocta[b]pyran-3-yl)methyl]phenyl]-2-methyl-benzenesulfonamide], for which the inhibition at 0.123 µM is 47.2%. Further, the inhibition at 0.37 µM under setting [1] worked out at 83.8%. The inhibition at 1.1 µM under setting [2] stood at 106%. Under setting [3], the inhibition at 3.3 µM was 109%. Under setting [4], the inhibition at 10 µM is 115%. Moreover, the inhibition at 30 µM under setting [5] was determined as 106%.

On to `COc1cccc(OC)c1S(=O)(=O)Nc1cccc(C(c2c(O)c3c(oc2=O)CCCCCC3)C2CC2)c1` (stereo not shown) [Example 334, N-[3-[Cyclopropyl(5,6,7,8,9,10-hexahydro-4-hydroxy-2-oxo-2H-cycloocta[b]pyran-3-yl)methyl]phenyl]-2,6-dimethoxy-benzenesulfonamide], for which the inhibition at 0.37 µM (dose 0.370 uM, read-out: HIV-1 Protease % Inhib) worked out at 13.6%. Further, the inhibition at 1.1 µM under setting [6] was determined as 42.3%. Also, the inhibition at 3.3 µM under setting [7] was 69%. In addition, the inhibition at 10 µM under setting [8] amounted to 87.6%. Further, the inhibition at 30 µM under setting [9] is 89.5%.

As for `COc1ccc(S(=O)(=O)Nc2cccc(C(c3c(O)c4c(oc3=O)CCCCCC4)C3CC3)c2)cc1OC` (stereo not shown) [Example 335, N-[3-[Cyclopropyl(5,6,7,8,9,10-hexahydro-4-hydroxy-2-oxo-2H-cycloocta[b]pyran-3-yl)methyl]phenyl]-3,4-dimethoxy-benzenesulfonamide], the inhibition at 0.123 µM is 48.7%. For the same compound, under setting [1], the inhibition at 0.37 µM came to 82.9%. Further, under setting [2], the inhibition at 1.1 µM turned out to be 90.3%. Also, under setting [3], the inhibition at 3.3 µM worked out at 96.8%. Further, under setting [4], the inhibition at 10 µM worked out at 96.5%. Further, the inhibition at 30 µM under setting [5] is 106%.

Take `Cc1cccc(S(=O)(=O)Nc2cccc(C(c3c(O)c4c(oc3=O)CCCCCC4)C3CC3)c2)c1` (stereo not shown) [Example 336, N-[3-[Cyclopropyl(5,6,7,8,9,10-hexahydro-4-hydroxy-2-oxo-2H-cycloocta[b]pyran-3-yl)methyl]phenyl]-3-methyl-benzenesulfonamide]: the inhibition at 0.123 µM came out at 73.5%. The inhibition at 0.37 µM under setting [1] was 87.3%. Also, the inhibition at 1.1 µM under setting [2] amounted to 93%. In addition, under setting [3], the inhibition at 3.3 µM was 94.6%. The inhibition at 10 µM under setting [4] is 103%. For the same compound, under setting [5], the inhibition at 30 µM was found to be 108%.

With `N#Cc1ccccc1S(=O)(=O)Nc1cccc(C(c2c(O)c3c(oc2=O)CCCCCC3)C2CC2)c1` (stereo not shown) [Example 339, 2-Cyano-N-[3-[cyclopropyl(5,6,7,8,9,10-hexahydro-4-hydroxy-2-oxo-2H-cycloocta[b]pyran-3-yl)methyl]phenyl]-benzenesulfonamide], the inhibition at 0.123 µM is 53.5%. The inhibition at 0.37 µM under setting [1] came to 81.3%. In addition, the inhibition at 1.1 µM under setting [2] is 94.9%. For the same compound, the inhibition at 3.3 µM under setting [3] was 99.2%. Further, the inhibition at 10 µM under setting [4] worked out at 105%. For the same compound, the inhibition at 30 µM under setting [5] was determined as 99.8%.

As to `CCCc1ccc(S(=O)(=O)Nc2cccc(C(c3c(O)c4c(oc3=O)CCCCCC4)C3CC3)c2)cc1` (stereo not shown) [Example 342, N-[3-[Cyclopropyl(5,6,7,8,9,10-hexahydro-4-hydroxy-2-oxo-2H-cycloocta[b]pyran-3-yl)methyl]phenyl]4-propyl-benzenesulfonamide], the inhibition at 0.123 µM came out at 42%. Also, under setting [1], the inhibition at 0.37 µM was 72.9%. Besides, under setting [2], the inhibition at 1.1 µM stood at 88.2%. The inhibition at 3.3 µM under setting [3] stood at 87.8%. Further, the inhibition at 10 µM under setting [4] came out at 108%. In addition, the inhibition at 30 µM under setting [5] was determined as 105%.

For `CCCCCCCCCCCCS(=O)(=O)Nc1cccc(C(c2c(O)c3c(oc2=O)CCCCCC3)C2CC2)c1` (stereo not shown) [Example 344, N-[3-[Cyclopropyl(5,6,7,8,9,10-hexahydro-4-hydroxy-2-oxo-2H-cycloocta[b]pyran-3-yl)methyl]phenyl]-1-dodecanesulfonamide], under setting [6], the inhibition at 1.1 µM was 11.8%. Also, under setting [7], the inhibition at 3.3 µM was 32.7%. Besides, under setting [8], the inhibition at 10 µM amounted to 63.2%. Also, under setting [9], the inhibition at 30 µM turned out to be 81.8%.

As for `CC(C)c1ccc(S(=O)(=O)Nc2cccc(C(c3c(O)c4c(oc3=O)CCCCCC4)C3CC3)c2)cc1` (stereo not shown) [Example 345, N-[3-[Cyclopropyl(5,6,7,8,9,10-hexahydro-4-hydroxy-2-oxo-2H-cycloocta[b]pyran-3-yl)methyl]phenyl]-4-(1-methylethyl)-benzenesulfonamide], the inhibition at 0.123 µM was 50%. Under setting [1], the inhibition at 0.37 µM was 77%. Also, the inhibition at 1.1 µM under setting [2] was 90.4%. Further, under setting [3], the inhibition at 3.3 µM amounted to 101%. The inhibition at 10 µM under setting [4] is 105%. Further, the inhibition at 30 µM under setting [5] was 91.8%.
